Measurements taken from the supplement of paper PMC8671470.
± gives the standard deviation of the averaged measurements.

Columns and labels:
Details in all cases: 72 h
MV4-11 [1] = tested on: MV4-11
Method in brief: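 Each of fifteen myeloid leukaemia cell lines was seeded in RPMI 1640 at a density titrated to its linear growth range. The cells were incubated for 72 h at 37 °C and 5% CO2 with compounds at five tenfold doses from 1 to 10,000 nM, in duplicate. After ATP luminescence was normalised to vehicle and to a positive control at 10 µM, four-parameter log-logistic curves were fitted. These curves gave the IC50.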

HL-60 [2] = experiment: cell viability (% survival relative to DMSO control); higher = less cytotoxic
Method in brief: (§1)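 Area under the curve, where listed, was derived from four-parameter log-logistic fits with drc and PharmacoGx. These fits used CellTiter-Glo viability from HL-60 cells in RPMI 1640 with 10% FBS, normalised to DMSO wells and wells holding 10 μM proteasome inhibitor. The full library was rescreened on 384-well plates in duplicate at five tenfold concentrations, 1–10,000 nM, with DMSO or 100 nM of one of three metabolic inhibitors, for 72 h at 37 °C, 5% CO2.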

BV-173 = experiment: cell viability (% survival relative to DMSO control, bortezomib = 0%); higher = less cytotoxic
Method in brief: (§2)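 Percent survival figures are means of duplicate wells. They were obtained by CellTiter-Glo luminescence after 10 AML and 5 CML cell lines spent 72 h at 37 °C with 5% CO2 in 384-well plates with compounds at 1, 10, 100, 1000 or 10000 nM. Vehicle was set to 100% and a 10 µM positive control to 0%.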

HEL = experiment: as above
Method in brief: as §2

HL-60 [3] = experiment: as above
Method in brief: as §2

K-562 = experiment: as above
Method in brief: as §2

KCL-22 = experiment: as above
Method in brief: as §2

KG-1 = experiment: as above
Method in brief: as §2

KU-812 = experiment: as above
Method in brief: as §2

LAMA-84 = experiment: as above
Method in brief: as §2

ML-2 = experiment: as above
Method in brief: as §2

MOLM-13 = experiment: as above
Method in brief: as §2

MV4-11 [4] = experiment: as above
Method in brief: as §2

Mono-Mac-6 = experiment: as above
Method in brief: as §2

NOMO-1 = experiment: as above
Method in brief: as §2

SHI-1 = experiment: as above
Method in brief: as §2

THP-1 = experiment: as above
Method in brief: as §2

HL-60 [5] = experiment: area under dose-response curve (viability, 1 nM-10 uM) (fraction (0-1)); higher = more sensitive
Method in brief: as §1

O=C1O/C(=C/Br)CCC1c1cccc2ccccc12 (stereo not given) [Bromoenol Lactone]
Details | IC50 (cell viability) [µM]
MV4-11 [1] | 5.73

cell viability [%], HL-60 [2]
Details | 0.001 µM | 0.01 µM | 0.1 µM | 1 µM | 10 µM
co-treatment: AZD3965 100 nM | 95.1 ± 10 | 97 ± 6.7 | 98.2 ± 5.9 | 96.796 ± 0.025 | 93.5 ± 3.1
co-treatment: DMSO vehicle | 100 ± 2.4 | 99.8 ± 7.1 | 100 ± 1.4 | 96.4 ± 5.3 | 87.9 ± 2.6
co-treatment: GSK2194069 100 nM | 90.2 ± 14 | 92.4 ± 9.3 | 108 ± 7.8 | 89.2 ± 2.9 | 115 ± 20
co-treatment: pictilisib 100 nM | 96.5 ± 35 | 106 ± 18 | 110 ± 9.4 | 101.3 ± 0.12 | 104 ± 13

Details | area under dose-response curve, co-treatment: AZD3965 100 nM | area under dose-response curve, co-treatment: DMSO vehicle | area under dose-response curve, co-treatment: GSK2194069 100 nM | area under dose-response curve, co-treatment: pictilisib 100 nM | cell viability, 1 nM [%] | cell viability, 10 nM [%] | cell viability, 100 nM [%] | cell viability, 1000 nM [%] | cell viability, 10000 nM [%]
BV-173 | – | – | – | – | 98.1 | 104 | 94.8 | 85.9 | 24.3
HEL | – | – | – | – | 105 | 103 | 91.3 | 99.8 | 41.3
HL-60 [3] | – | – | – | – | 100 | 101 | 144 | 90.7 | 77.2
HL-60 [5] | < 0.0301 | < 0.0301 | < 0.0301 | < 0.0301 | – | – | – | – | –
K-562 | – | – | – | – | 102 | 106 | 98.1 | 93.5 | 46.9
KCL-22 | – | – | – | – | 95.3 | 93.1 | 104 | 86.6 | 52.2
KG-1 | – | – | – | – | 97.7 | 97.7 | 101 | 89.8 | 56.6
KU-812 | – | – | – | – | 98.3 | 93.3 | 102 | 86.1 | 45.8
LAMA-84 | – | – | – | – | 101 | 99.2 | 99.9 | 95.9 | 74
ML-2 | – | – | – | – | 102 | 100 | 94.6 | 92.9 | 59.7
MOLM-13 | – | – | – | – | 96.5 | 94 | 112 | 91.5 | 44.1
MV4-11 [4] | – | – | – | – | 99 | 106 | 105 | 92.4 | 45.8
Mono-Mac-6 | – | – | – | – | 98.4 | 102 | 93.8 | 95.6 | 52.7
NOMO-1 | – | – | – | – | 108 | 100 | 100 | 82.7 | 40.4
SHI-1 | – | – | – | – | 102 | 92.9 | 108 | 91.2 | 83.2
THP-1 | – | – | – | – | 97.3 | 97.6 | 92.3 | 81.4 | 44.7
